Measurements reported in US5567704A, “R-enatiomerically pure hydroxylated xanthine compounds to treat baldness” (priority 1995, dated 1996).

Assays:
[1] = tested on: lysophosphatidic acid acyl transferase (LPAAT); assay: in vitro inhibition of LPAAT in 3T3 Ras-transformed fibroblasts stimulated with IL-1β; assay type: cell-based; conditions: 3T3 Ras-transformed fibroblasts, IL-1β, FIG. 17
Procedure: FIG. 17 illustrates a comparison of CT1501R, its S isomer CT1501S, and PTX on in vitro inhibition of lysophosphatidic acid acyl transferase (LPAAT), an enzyme involved in second messenger signaling. […] LPAAT activity was determined in 3T3 Ras-transformed fibroblasts stimulated with IL-1β.
One in vitro assay measures inhibition of the relevant enzymes lysophosphatidic acid acyltransferase (LPAAT) and phosphatidic acid phosphoryl hydrolase (PAPH). The assay involves incubating of target cells with a primary stimulus (e.g., a variety of cytokines, growth factors, oncogene products, putative therapeutic agents, irradiation, viral infection, toxins, bacterial infection and the products thereof, and any stimulus which, if not counteracted, has a deleterious effect on the target cell) in the presence or absence of an inventive compound at varying dosage levels. Target cells include, for example, subcellular entities, such as, microsomes derived from mesenchymal and/or ectodermal cells, particularly microsomes from marrow stromal cells or human or rat mesangial cells; microsomes or synaptosomes derived from brain; plasma membrane-enriched microsomes, plasma membranes derived as described in Bursten et at. (J. Biol. Chem. 226:20732-20743, 1991 ), or detergent-solubilized microsomes; synaptosomes, and membranes or other cell preparations solubilized using, for example, NP-40, Miranal, SDS or other neutral detergents; and detergent-solubilized, recombinant, or further purified preparations of cell proteins, including the proteins LPAAT and/or PAPH. After incubation for short periods of time, cell lipids are extracted and assayed by […] according to standard procedures. Briefly, lipids are extracted using, for example, chloroform:methanol 2:1 (v/v), and the extracts are then subjected to HPLC as described in Bursten and Harris, Biochemistry 30:6195-6203, 1991. A Rainin® mu-Porasil column is used with a 3:4 hexane:propanol organic carrier and a 1-10% water gradient during the first 10 minutes of separation. Detection of the peaks in the elution pattern is by absorption in the range of ultraviolet which detects isolated double bonds. The relevant peaks of unsaturated PA and DAG are shown in the elution pattern. It is important to note that the assay method permits discrimination between various forms of PA and DAG so that those relevant to the pathway affected by the (R) or (S) compounds of the invention can be measured directly. Confirmation of the nature of the acyl substituents of these components is accomplished using fast-atom bombardment mass spectroscopy. Thus, the relevant unsaturated (non-arachidonic) PA and DAG subspecies may be detected. The time periods employed are 5-60 seconds after stimulation with the primary stimulus, such as a cytokine. This technique permits assessment of the levels of various lipid components as a function of time.

[2] = tested on: PBMC (peripheral blood mononuclear cells); assay: two-way mixed lymphocyte reaction (MLR); assay type: cell-based, human; conditions: FIG. 1
Source text: Various in vitro assays can be used to measure effects of the inventive compounds to module immune activity and have antitumor activity using a variety of cellular types. For example, a mixed lymphocyte reaction (MLR) provides a valuable screening tool to determine biological activity of each inventive compound. In the MLR, PBMCs (peripheral blood mononuclear cells) are obtained by drawing whole blood from healthy volunteers in a heparinized container and diluted with an equal volume of hanks balanced salt solution (HBSS). This mixture is layered on a sucrose density gradient, such as a Ficoll-Hypaque® gradient (specific gravity 1.08), and centrifuged at 1000× g for 25 minutes at room temperature or cooler. PBMC are obtained from a band at a plasma-Ficoll interface, separated and washed at least twice in a saline solution, such as HBSS. Contaminating red cells are lysed, such as by ACK lysis for 10 min at 37° C., and the PBMCs are washed twice in HBSS. The pellet of purified PBMCs is resuspended in complete medium, such as RPMI 1640 plus 20% human inactivated serum. Proliferative response of PBMC to allogeneic stimulation is determined in a two-way MLR performed in a 96-well microtiter plate. […] At the conclusion of the incubation tritiated thymidine is added (for example, 1 μCi/well of 40 to 60 Ci/mmole) and proliferation determined by liquid scintillation counting. […]

[3] = tested on: smooth muscle cell; assay: smooth muscle proliferation stimulated by PDGF and IL-1; assay type: cell-based; conditions: PDGF and IL-1; drug added two hours prior, FIG. 4
Source text: CT1501R and PTX were separately added to the cells two hours prior to activation with PDGF and IL-1.

[4] = metabolized in humans; cited from earlier work
[5] = tested on: stromelysin/PUMP-1; assay: PUMP-1 activity induced by IL-1; assay type: cell-based; conditions: induced by 100 U/ml of IL-1
Source text: Metalloproteases mediate tissue damage such as glomerular diseases of the kidney, joint destruction in arthritis, and lung destruction in emphysema, and play a role in tumor metastases. Three examples of metalloproteases include a 92 kD type V gelatinase induced by TNF, IL-1 and PDGF plus bFGF, a 72 kD type IV collagenase that is usually constitutive and induced by TNF or IL-1, and a stromelysin/PUMP-1 induced by TNF and IL-1. The inventive compounds can inhibit TNF or IL-1 induction of the 92 kD type V gelatinase inducable metalloprotease. Moreover, CT 1501R reduced PUMP- 1 activity induced by 100 U/ml of IL-1 to 15% of its control levels. […] Accordingly, the inventive compounds prevent induction of certain metalloproteases induced by IL-1 or TNF and are not involved with constitutively produced proteases (e.g., 72 kD type IV collagenase) involved in normal tissue remodeling.

[6] = tested on: nu/nu mice; assay: nude mouse hair studies, topical application; assay type: in vivo; conditions: second experiment; topical twice daily, 34 days
Source text: This example illustrates nude mouse hair studies involving topical application of CT1501R. Six to eight week old, female, nu/nu mice from Charles River Laboratories were housed at Biosupport Research Support Services (Seattle, Wash.) in autoclaved micro isolator units with hyperchlorinated autoclaved water, irradiated rodent chow and kept under a laminar flow hood. Caging was changed weekly, and water was changed twice weekly. The mice were acclimated for 5 days before beginning each study.
The first topical formulation was prepared by adding CT1501R to a heated hydrophilic ointment (USP) at a 1% concentration, and allowed to solidify.
Nude mice were painted twice daily for 16 days with the first topical formulation of CT1501R on the left flank and another compound in the same base on the right flank with sterile applicators. Mice were handled under the laminar flow hood with applicator wearing face mask and sterile gloves. After 16 days, one mouse was sacrificed by cervical dislocation and skin biopsies were taken of the treated areas of the shoulder/flank and from the non-treated area of the dorsal pelvis (rump). Specimens were placed in 10% buffered formalin solution. Biopsies were sent to a veterinary dermopathologist for histopathology. Six weeks following treatment, a second mouse was euthanatized and biopsied the same as the first. Samples were sent for histopathology.
In a second experiment, topical application of CT1501R was performed along with a commercial topical minoxidil preparation (Rogaine®, Upjohn) that is approved for a hair growth indication. Five to six week old, female, nu/nu mice from Bantin and Kingman Universal were housed at Biosupport Research Support Services (Seattle, Wash.) in autoclaved micro isolator units with hyper chlorinated autoclaved water, irradiated rodent chow and kept under a laminar flow hood. Caging was changed weekly, and water was changed twice weekly. Mice were acclimated for 7 days before beginning study.
CT1501R, and two other compounds were prepared in a topical formulation of 60% ETOH, 10% water and 30% PEG along with vehicle only. Minoxidil was purchased as the commercial preparation Rogaine® from a local pharmacy. Rogaine® is sold in the same formulation base. Mice were identified by unique tail markings specific for each test article. Two mice per group were treated with CT1501R and another compound. One mouse was treated with each of vehicle and minoxidil. The mice were handled under the laminar flow hood with the applicator wearing face mask and sterile gloves. Each mouse was treated twice daily with a separate sterile applicator to avoid contamination of the solutions or the mice. All mice were applied a strip of appropriate test article along the center line of the back from the base of the skull to the base of the tail, approximately 1.5 cm wide. After 34 days all mice were euthanatized by overdose of halothane anesthesia. Skin biopsies were taken from each of the 7 mice over the nape of the neck between the scapulas (approximate size was 1×1.5 cm). All specimens were blotted on gauze to remove blood and fluids, affixed to a cut piece of wooden tongue depressor, and placed specimen side down in separately marked containers with 10% buffered formalin. Specimens were shipped to a veterinary dermatopathologist for qualitative histopathological determinations.

Structure (SMILES)	inhibition of LPAAT enzyme activity [1]	proliferative response of PBMC to allogeneic stimulation [2]	inhibition of smooth muscle cell proliferation [3]	metabolic conversion of PTX [4]	PUMP-1 activity, % of control levels [5] [%]	hair follicles, subjective histopathological examination [6]
C[C@H](O)CCCCn1c(=O)c2c(ncn2C)n(C)c1=O [CT1501S]	only CT1501R significantly inhibited enzyme activity					
CC(=O)CCCCn1c(=O)c2c(ncn2C)n(C)c1=O [PTX, 1-(5-oxohexyl)-3,7-dimethylxanthine, reference compound]	only CT1501R significantly inhibited enzyme activity	showed dose-response activity	inhibited smooth muscle cell proliferation at the higher doses tested	converted almost exclusively to the S enantiomer of MI	95	
Nc1cc(N2CCCCC2)nc(N)[n+]1[O-] [minoxidil, reference compound]						fair response to treatment
